Four compounds from patent US20060141629A1, “Method and system for determining platelet-mediated clot formation” (priority 2004, published 2006) can be followed below.

Test [1] concerns vitamin K dependent clotting factors (II, VII, IX and X). As to the kind of experiment: Level of vitamin K dependent clotting factors on coumadin therapy. It counts as in vivo. Conditions: patient on coumadin therapy, INR=3.0.
Test [2] is described as follows: INR (ratio of PT clotting times) in patients on coumadin. In kind it is in vivo. Conditions: patients receiving coumadin therapy; normal INR 0.8-1.3.
The test system of test [3] is blood from patients receiving coumadin therapy. As to the kind of experiment: PT reagent initiated clot formation (CPA), coumadin patients. It counts as cell-based.
Procedure: In this assay PT-fibrinogen reagent (Instrumentation Laboratories) was diluted 1:10 in normal saline containing 0.5% BSA to yield a 10% solution. On the upper cap of a CPA well set attached to a magnetic stirrer 1.6 μl of 1M CaCl2 and 3.8; or 4.0 μl of the diluted PT reagent were added. The stirrer assembly was placed in a CPA well containing 130 μl of whole blood and spinning at about 720 rpm started immediately. The spinning was stopped after 2 min. The well was then washed and stained as described above, and clot % surface coverage and clot average size were determined.
A short description of test [4]: PTT of patient receiving heparin therapy. In kind it is in vivo. To be noted: normal 26-34 sec.
Test [5] relates to blood from a patient receiving heparin therapy. As to the kind of experiment: Heparin inhibition of factor Xa clot formation (CPA). In kind it is cell-based. How it is done: In the following experiment bovine factor Xa (Sigma) and CaCl2 were used to initiate clot formation in whole blood. On the upper cap of a CPA well set was placed 2.2 μl of a factor Xa solution (7×10^−3 unit/ml) and 1.6 μl of 1M CaCl2. The stirrer assembly was placed in a well containing 130 μl of whole blood and spinning at about 720 rpm started immediately. The spinning was stopped after 2 min. The well was then washed and stained, and the clot % surface coverage and the clot average size were determined.

Test [6] has as its system whole blood sample from a healthy subject. Description: Titration of thrombin inhibitor hirudin with thrombin (CPA). In kind it is cell-based. How it is done: The levels of thrombin inhibitory drugs such as hirudin and its analogs were determined by titrating the thrombin inhibitor in a whole blood sample with thrombin. To a whole blood sample from a healthy subject hirudin (Sigma) was add to a level of 5×10^−1 anti-thrombin Units/ml. Bovine thrombin (Sigma) (5 Units/ml or 10 Units/ml) was then added to the hirudin treated and untreated whole blood. The thrombin was placed on the upper cap of a CPA well set attached to a magnetic stirrer. The stirrer assembly was placed in a well containing 130 μl of whole blood and spinning at about 720 rpm started immediately. After two min. the spinning was stopped. As described above, the well was washed and stained, and the clot % surface coverage and clot average size determined.

Test [7] deals with normal blood samples (citrated whole blood). Description: Thrombin dose response of fibrin clot formation (CPA, image analysis). It counts as cell-based. To be noted: FIGS. 2A-2B. How it is done: In this assay, increasing concentrations of thrombin, which promotes fibrin clot formation, were applied to normal blood samples. In particular, thrombin was placed on the tip of the rotating conical disc, in an amount yielding final concentration according to the points indicated in FIG. 3A and FIG. 3B. The conical disc was then applied in the well containing 130 μL of citrated whole blood, rotated at 720 rpm for two minutes followed by washing and staining of the well. For quantitative determination of fibrin clot formation image analysis (using Impact-R image analysis system, DiaMed, Switzerland) was performed.
Image analysis of the stained fibrin clots was performed expressing the amount of clot in terms of % of surface covered (SC, %), and the average size (AS, μm^2) of the stained clots.

Where [8] appears, read: factor Xa and CaCl2 added, FIG. 5D.

With `CC(=O)CC(c1ccccc1)c1c(O)c2ccccc2oc1=O` (centres unmarked) [coumadin], the “vitamin K dependent clotting factors level” value in test [1] is 25-40%. Besides, the INR in test [2] is 3.0. In addition, the clot formation result in test [3] (blood from coumadin patients, absence of clot initiator or CaCl2, FIG. 4C) was “no clots are formed”; in test [3] (blood from coumadin treated patients (INR 3.0), PT reagent added, FIG. 4D), “no clot formation was observed”.

Compound heparin registered a PTT in test [4] of 130 s. In addition, in test [5] (setting [8]), the clot average size is reported as 30, the clot formation result is “no clot formation was observed” and the surface coverage is 3.0%. In test [5] (no factor Xa or CaCl2, FIG. 5C), this compound displayed a clot average size of 24 and a surface coverage of 8.2%.

As to hirudin, the clotting entry in test [6] (whole blood containing hirudin, thrombin 4×10^−2 Units/ml, FIG. 7B) is “no clotting was observed”.

As for “thrombin: Bovine thrombin (Sigma), promotes fibrin clot formation; clot initiator”, the “thrombin added giving sharp increase in both average size and surface coverage” value in test [7] is 0.005 IU/ml. The clotting entry in test [6] (added thrombin 6×10^−2 Units/ml, whole blood treated with hirudin, FIG. 7D) is reported as “Clotting was observed”. The “added thrombin concentration at which clotting began” value in test [6] (thrombin added to the whole blood, FIG. 7C) is listed as 1×10^−2 Units/ml.
